Reference: ChEMBL document CHEMBL1909046, “DrugMatrix in vitro pharmacology data”

Legend:
[1] = DRUGMATRIX: beta-Lactamase enzyme inhibition (substrate: Nitrocefin); parameters: species or system Bacillus cereus; settings: Not Active = under 50% inhibition at 10 µM
[2] = DRUGMATRIX: Phosphodiesterase PDE3 enzyme inhibition (substrate: [3H]cAMP + cAMP); format: tissue-based, Homo sapiens; settings: platelet, Not Active = under 50% inhibition at 10 µM
Interstitial collagenase = molecular target: T1, Interstitial collagenase (Homo sapiens, UniProt P03956); format: tissue-based, Rheumatoid synovial fibroblasts;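 also: MMP-1 enzyme inhibition assay using a peptide substrate; in other assays of this panel Not Active means under 50% inhibition at 10 µM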
T1 sequence (P03956 whole entry): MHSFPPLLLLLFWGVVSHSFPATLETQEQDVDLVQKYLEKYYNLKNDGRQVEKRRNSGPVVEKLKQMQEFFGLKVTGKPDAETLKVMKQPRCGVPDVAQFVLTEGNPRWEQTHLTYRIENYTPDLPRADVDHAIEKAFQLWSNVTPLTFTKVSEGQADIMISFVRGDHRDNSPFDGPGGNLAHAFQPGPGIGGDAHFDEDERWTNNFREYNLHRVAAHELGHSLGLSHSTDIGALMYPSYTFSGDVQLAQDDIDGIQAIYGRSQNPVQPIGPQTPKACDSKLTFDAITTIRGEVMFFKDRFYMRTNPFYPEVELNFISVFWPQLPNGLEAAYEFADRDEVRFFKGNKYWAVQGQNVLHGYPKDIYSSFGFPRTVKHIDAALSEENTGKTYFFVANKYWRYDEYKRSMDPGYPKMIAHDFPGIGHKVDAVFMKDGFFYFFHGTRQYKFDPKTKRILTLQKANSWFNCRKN

[3] = DRUGMATRIX: Glutamate, Kainate radioligand binding (ligand: [3H] Kainic acid); format: cell membranes, Rattus norvegicus, Wistar, Brain, Membrane; settings: Not Active = under 50% inhibition at 10 µM
Cannabinoid receptor 1 = Cannabinoid receptor 1 (Homo sapiens, UniProt P21554); format: cell membranes, Membrane; settings: chem-1; also: in other assays of this panel Not Active means under 50% inhibition at 10 µM
Calcitonin receptor = molecular target: T2, Calcitonin receptor (Homo sapiens, UniProt P30988); format: cell membranes, Membrane; settings: t47d; also: in other assays of this panel Not Active means under 50% inhibition at 10 µM
T2 sequence (P30988 whole entry): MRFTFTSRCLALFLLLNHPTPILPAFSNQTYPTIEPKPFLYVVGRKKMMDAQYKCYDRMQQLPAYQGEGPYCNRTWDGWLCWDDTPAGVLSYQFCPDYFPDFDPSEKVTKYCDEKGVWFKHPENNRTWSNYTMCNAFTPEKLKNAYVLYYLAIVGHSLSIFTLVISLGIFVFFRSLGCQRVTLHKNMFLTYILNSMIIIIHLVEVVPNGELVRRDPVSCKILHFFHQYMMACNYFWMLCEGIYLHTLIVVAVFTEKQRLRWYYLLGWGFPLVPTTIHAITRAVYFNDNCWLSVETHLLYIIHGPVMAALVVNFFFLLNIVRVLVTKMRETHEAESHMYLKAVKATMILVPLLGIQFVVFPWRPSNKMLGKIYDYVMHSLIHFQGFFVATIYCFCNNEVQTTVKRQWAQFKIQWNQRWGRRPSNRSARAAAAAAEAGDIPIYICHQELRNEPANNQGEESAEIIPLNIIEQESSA

Estrogen receptor = molecular target: T3, Estrogen receptor (Homo sapiens, UniProt P03372); settings: sf9; also: in other assays of this panel Not Active means under 50% inhibition at 10 µM
T3 sequence (P03372 whole entry): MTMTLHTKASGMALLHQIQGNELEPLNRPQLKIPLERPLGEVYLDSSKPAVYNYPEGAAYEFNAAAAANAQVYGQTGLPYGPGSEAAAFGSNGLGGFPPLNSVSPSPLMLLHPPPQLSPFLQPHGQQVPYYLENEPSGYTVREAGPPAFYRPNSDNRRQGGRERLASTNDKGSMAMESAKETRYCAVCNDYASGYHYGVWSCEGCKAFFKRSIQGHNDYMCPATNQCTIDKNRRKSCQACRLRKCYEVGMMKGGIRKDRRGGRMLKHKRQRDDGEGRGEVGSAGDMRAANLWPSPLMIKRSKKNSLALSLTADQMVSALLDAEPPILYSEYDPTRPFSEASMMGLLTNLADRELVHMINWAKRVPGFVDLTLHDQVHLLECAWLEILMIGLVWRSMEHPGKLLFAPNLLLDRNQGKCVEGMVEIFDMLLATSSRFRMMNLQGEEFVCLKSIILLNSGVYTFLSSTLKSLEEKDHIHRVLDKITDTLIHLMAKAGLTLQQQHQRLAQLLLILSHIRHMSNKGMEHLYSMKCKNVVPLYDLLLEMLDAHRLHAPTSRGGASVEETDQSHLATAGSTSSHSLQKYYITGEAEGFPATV

[4] = molecular target: T4, C-X-C chemokine receptor type 1 (Homo sapiens, UniProt P25024); also: in other assays of this panel Not Active means under 50% inhibition at 10 µM
T4 sequence (P25024 whole entry): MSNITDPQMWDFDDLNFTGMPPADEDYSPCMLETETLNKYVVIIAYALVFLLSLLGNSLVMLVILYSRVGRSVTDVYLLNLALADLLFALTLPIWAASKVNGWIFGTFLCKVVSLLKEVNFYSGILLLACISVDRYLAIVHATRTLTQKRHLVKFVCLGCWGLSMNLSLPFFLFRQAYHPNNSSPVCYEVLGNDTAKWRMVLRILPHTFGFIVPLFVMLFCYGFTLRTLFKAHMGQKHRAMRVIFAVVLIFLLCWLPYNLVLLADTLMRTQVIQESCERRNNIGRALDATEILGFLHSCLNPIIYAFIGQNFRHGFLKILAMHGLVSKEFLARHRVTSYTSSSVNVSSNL

Sequence of Cannabinoid receptor 1 (P21554 whole entry): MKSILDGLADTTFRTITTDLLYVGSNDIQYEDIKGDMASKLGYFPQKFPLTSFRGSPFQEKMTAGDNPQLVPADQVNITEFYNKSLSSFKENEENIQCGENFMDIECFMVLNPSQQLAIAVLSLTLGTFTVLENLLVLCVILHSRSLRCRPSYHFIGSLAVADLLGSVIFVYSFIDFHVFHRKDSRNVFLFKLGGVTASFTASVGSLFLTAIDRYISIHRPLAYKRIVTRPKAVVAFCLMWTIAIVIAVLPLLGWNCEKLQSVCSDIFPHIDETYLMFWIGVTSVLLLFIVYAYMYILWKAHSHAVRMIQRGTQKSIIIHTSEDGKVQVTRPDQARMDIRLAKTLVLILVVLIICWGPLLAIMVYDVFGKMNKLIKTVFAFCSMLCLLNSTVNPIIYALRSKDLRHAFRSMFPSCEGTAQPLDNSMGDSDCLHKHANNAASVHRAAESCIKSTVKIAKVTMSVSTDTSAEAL

Row | Structure (SMILES) | IC50 [1] | Ki [1] | IC50 [2] | Ki [2] | IC50 (Interstitial collagenase) | IC50 [3] | Ki [3] | IC50 (Cannabinoid receptor 1) | IC50 (Calcitonin receptor) | IC50 (Estrogen receptor) | IC50 [4] | IC50 ([2]; read-out: IC50) [nM]
1 | Nn1nnc2ccccc21 | Not Active | Not Active | Not Active | Not Active | Not Active | Not Active | Not Active | Not Active | Not Active | Not Active | Not Active | 
2 | CCOC(=O)[C@H](CCc1ccccc1)N[C@@H](C)C(=O)N1Cc2ccccc2C[C@H]1C(=O)O | Not Active | Not Active | Not Active | Not Active | Not Active | Not Active | Not Active | Not Active | Not Active | Not Active | Not Active | 
3 | O=C(c1ccccc1Cl)N1CCC(Cc2ccccc2)CC1 | Not Active | Not Active | Not Active | Not Active | Not Active | Not Active | Not Active | Not Active | Not Active | Not Active | Not Active | 
4 | Clc1cc2c(cc1Cl)Oc1cc(Cl)c(Cl)cc1O2 [2,3,7,8-TETRACHLORODIBENZO-P-DIOXIN] | Not Active | Not Active | Not Active | Not Active | Not Active | Not Active | Not Active | Not Active | Not Active | Not Active | Not Active | 
5 | CCCCCC[C@H]1C(=O)O[C@H](C)[C@H](NC(=O)c2cccc(NC=O)c2O)C(=O)O[C@@H](C)[C@@H]1OC(=O)CC(C)C [ANTIMYCIN A] | Not Active | Not Active | Not Active | Not Active | Not Active | Not Active | Not Active | Not Active | Not Active | Not Active | Not Active | 
6 | CO[C@H]1[C@@H](O)[C@H](N)[C@@H](O[C@H]2O[C@H]([C@H](C)N)CC[C@H]2N)[C@H](O)[C@@H]1N(C)C(=O)CN [ASTROMICIN] | Not Active | Not Active | Not Active | Not Active | Not Active | Not Active | Not Active | Not Active | Not Active | Not Active | Not Active | 
7 | CC[C@H]1OC(=O)[C@H](C)[C@@H](O[C@H]2C[C@@](C)(OC)[C@@H](O)[C@H](C)O2)[C@H](C)[C@@H](O[C@@H]2O[C@H](C)C[C@H](N(C)C)[C@H]2O)[C@](C)(O)C[C@@H](C)CN(C)[C@H](C)[C@@H](O)[C@]1(C)O [AZITHROMYCIN] | Not Active | Not Active | Not Active | Not Active | Not Active | Not Active | Not Active | Not Active | Not Active | Not Active | Not Active | 
8 | CC(C)(C)c1ccc(S(=O)(=O)/C=C/C#N)cc1 [BAY-11-7085] | Not Active | Not Active | Not Active | Not Active | Not Active | Not Active | Not Active | Not Active | Not Active | Not Active | Not Active | 
9 | CCc1oc2ccccc2c1C(=O)c1cc(Br)c(O)c(Br)c1 [BENZBROMARONE] | Not Active | Not Active | Not Active | Not Active | Not Active | Not Active | Not Active | Not Active | Not Active | Not Active | Not Active | 
10 | O=c1cc(-c2ccccc2)oc2ccc3ccccc3c12 [BETA-NAPHTHOFLAVONE] | Not Active | Not Active | Not Active | Not Active | Not Active | Not Active | Not Active | Not Active | Not Active | Not Active | Not Active | 
11 | CS(=O)(=O)OCCCCOS(C)(=O)=O [BUSULFAN] | Not Active | Not Active | Not Active | Not Active | Not Active | Not Active | Not Active | Not Active | Not Active | Not Active | Not Active | 
12 | COc1cc(CNC(=O)CCCC/C=C/C(C)C)ccc1O [CAPSAICIN] | Not Active | Not Active | Not Active | Not Active | Not Active | Not Active | Not Active | Not Active | Not Active | Not Active | Not Active | 
13 | NC(=O)N1c2ccccc2C=Cc2ccccc21 [CARBAMAZEPINE] | Not Active | Not Active | Not Active | Not Active | Not Active | Not Active | Not Active | Not Active | Not Active | Not Active | Not Active | 
14 | CCOC(=O)n1ccn(C)c1=S [CARBIMAZOLE] | Not Active | Not Active | Not Active | Not Active | Not Active | Not Active | Not Active | Not Active | Not Active | Not Active | Not Active | 
15 | CO[C@@]1(NC(=O)CSCC#N)C(=O)N2C(C(=O)O)=C(CSc3nnnn3C)CS[C@@H]21 [CEFMETAZOLE] | Not Active | Not Active | Not Active | Not Active | Not Active | Not Active | Not Active | Not Active | Not Active | Not Active | Not Active | 
16 | CNC(=C[N+](=O)[O-])NCCSCc1csc(CN(C)C)n1 [NIZATIDINE] | Not Active | Not Active | Not Active | Not Active | Not Active | Not Active | Not Active | Not Active | Not Active |  | Not Active | 
17 | COc1ccc(Cc2nccc3cc(OC)c(OC)cc23)cc1OC [PAPAVERINE] | Not Active | Not Active |  |  | Not Active | Not Active | Not Active | Not Active | Not Active |  | Not Active | 665
18 | CC(C)(Sc1cc(C(C)(C)C)c(O)c(C(C)(C)C)c1)Sc1cc(C(C)(C)C)c(O)c(C(C)(C)C)c1 [PROBUCOL] | Not Active | Not Active | Not Active | Not Active | Not Active | Not Active | Not Active | Not Active | Not Active |  | Not Active | 
